Measurements taken from patent US9879043B1, “Synthesis of non-natural cofactor analogs of S-adenosyl-L-methionine using methionine adenosyltransferase” (University of Kentucky Research Foundation, priority 2013, dated 2018).

How the values were obtained:
Format in all cases: biochemical
[1] = biological target: Escherichia coli MAT (eMAT) (Escherichia coli, UniProt P0A817); assay: MAT assay, turnover of S/Se-Met analogs to S(Se)AM analogs (RP-HPLC end point); settings: 2 mM Met analog, 1 mM ATP, 5 μM MAT, pH 8, 4 h, 37° C.; average of two assays
Method: Standard uniform assay conditions (2 mM Met analog, 1 mM ATP, 5 μM MAT, 25 mM Tris, 5 mM MgCl2, 50 mM KCl, pH 8, 4 h) were adopted to facilitate this broad assessment. For the thermophilic counterpart (mMAT), reactions were conducted at 65° C., while all other reactions were incubated at 37° C. Production of SAM analogs was determined by an RP-HPLC end point assay to afford complete analysis of the desired SAM analog and/or any corresponding degradation products known to directly derive from the desired SAM analog intermediate. Putative SAM analog and SAM-derived degradative product formation was subsequently confirmed via high-resolution mass spectrometry (HRMS) analysis for all positive reactions (see Table 2).
(§1) To monitor MAT reactions, analytical RP HPLC employed a Luna C18 column (5 μm, 4.6 mm×250 mm; Phenomenex, Torrance, Calif., USA) [gradient of 10% B to 40% B over 15 min, 40% B to 75% B over 5 min (A=10 mM NaH2PO4, 5 mM octane sulfonic acid, pH was adjusted to 3.5 using phosphoric acid; B=acetonitrile) flow rate=1 mL min^−1; A254].
(§2) In vitro MAT reactions were conducted in a volume of 50 μl with 2 mM S/Se-alkylated analog (compounds 2-30), 1 mM ATP and 5 μM purified MAT in 25 mM Tris buffer pH 8.0, 5 mM MgCl2, 50 mM KCl for 4 h. The sMAT and mMAT reactions were conducted at 65° C. while hMATs and eMAT were incubated at 37° C. Reactions were quenched by adding an equal volume of methanol followed by centrifugation (10,000×g for 15 min) to remove the precipitated protein and product formation for each reaction was subsequently analyzed by RP-HPLC using Method D (FIG. 15, first column). For each reaction, percent yield was based upon the integration of species at 254 nm and calculated by dividing the integrated area of product and/or decomposed product by the sum of integrated area of product and/or decomposed product and the remaining substrate. The assays were repeated twice under identical conditions, and Table 2 (and FIG. 5) represents an average value of two assays. The inclusion of adenine and 5′-R-thio-5′-adenosine in these calculations is based upon the established SAM and ATP chemical decomposition pathways which indicate adenine and 5′-R-thio-5′-adenosine to only derive from SAM (not ATP). All putative products were subsequently confirmed by high resolution electrospray ionization (ESI) mass spectra with positive (+) and/or negative (−) mode.

[2] = biological target: human MAT I catalytic subunit alpha (hMAT1A) (Homo sapiens, UniProt Q00266); assay: as above; settings: 2 mM Met analog, 1 mM ATP, 5 μM MAT, pH 8, 4 h, 37° C.; average of two assays
Method: (§3) Standard uniform assay conditions (2 mM Met analog, 1 mM ATP, 5 μM MAT, 25 mM Tris, 5 mM MgCl2, 50 mM KCl, pH 8, 4 h) were adopted to facilitate this broad assessment. For the thermophilic counterpart (mMAT), reactions were conducted at 65° C., while all other reactions were incubated at 37° C. Production of SAM analogs was determined by an RP-HPLC end point assay to afford complete analysis of the desired SAM analog and/or any corresponding degradation products known to directly derive from the desired SAM analog intermediate.
as §1
as §2, with “The” for “In vitro MAT reactions were conducted in a volume of 50 μl with 2 mM S/Se-alkylated analog (compounds 2-30), 1 mM ATP and 5 μM purified MAT in 25 mM Tris buffer pH 8.0, 5 mM MgCl2, 50 mM KCl for 4 h. The”

[3] = biological target: human MAT II catalytic alpha and regulatory beta subunit (hMAT2) (Homo sapiens, UniProt P31153); assay: as above; settings: 2 mM Met analog, 1 mM ATP, 5 μM MAT, pH 8, 4 h, 37° C.; average of two assays
Method: as §3, §1
as §2, with “The” for “In vitro MAT reactions were conducted in a volume of 50 μl with 2 mM S/Se-alkylated analog (compounds 2-30), 1 mM ATP and 5 μM purified MAT in 25 mM Tris buffer pH 8.0, 5 mM MgCl2, 50 mM KCl for 4 h. The”

[4] = biological target: human MAT II catalytic alpha subunit alone (hMAT2A) (Homo sapiens, UniProt P31153); assay: as above; settings: 2 mM Met analog, 1 mM ATP, 5 μM MAT, pH 8, 4 h, 37° C.; average of two assays
Method: as §3, §1
as §2, with “The” for “In vitro MAT reactions were conducted in a volume of 50 μl with 2 mM S/Se-alkylated analog (compounds 2-30), 1 mM ATP and 5 μM purified MAT in 25 mM Tris buffer pH 8.0, 5 mM MgCl2, 50 mM KCl for 4 h. The”

[5] = biological target: T1, Methanocaldococcus jannaschii MAT (mMAT) (Methanocaldococcus jannaschii, UniProt Q58605); settings: 2 mM Met analog, 1 mM ATP, 5 μM MAT, pH 8, 4 h, 65° C.; average of two assays
T1 sequence (Q58605 1-406): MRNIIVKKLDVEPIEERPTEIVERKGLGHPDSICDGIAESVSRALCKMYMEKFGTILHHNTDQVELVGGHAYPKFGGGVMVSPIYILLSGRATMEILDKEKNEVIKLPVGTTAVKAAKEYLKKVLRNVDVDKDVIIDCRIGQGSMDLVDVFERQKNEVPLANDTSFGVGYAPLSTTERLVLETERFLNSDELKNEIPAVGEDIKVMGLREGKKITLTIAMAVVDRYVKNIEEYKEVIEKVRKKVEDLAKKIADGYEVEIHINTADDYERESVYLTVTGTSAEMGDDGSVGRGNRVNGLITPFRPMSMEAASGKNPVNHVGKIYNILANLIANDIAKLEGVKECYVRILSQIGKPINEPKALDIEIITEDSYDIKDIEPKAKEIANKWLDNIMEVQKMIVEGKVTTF
Method: as §3, §1
as §2, with “The” for “In vitro MAT reactions were conducted in a volume of 50 μl with 2 mM S/Se-alkylated analog (compounds 2-30), 1 mM ATP and 5 μM purified MAT in 25 mM Tris buffer pH 8.0, 5 mM MgCl2, 50 mM KCl for 4 h. The”

[6] = biological target: T2, Sulfolobus solfataricus MAT (sMAT) (Saccharolobus solfataricus, UniProt Q980S9); settings: 2 mM analog, 1 mM ATP, 5 μM sMAT, pH 8.0, 4 h at 65° C.; average of two assays
T2 sequence (Q980S9 1-404): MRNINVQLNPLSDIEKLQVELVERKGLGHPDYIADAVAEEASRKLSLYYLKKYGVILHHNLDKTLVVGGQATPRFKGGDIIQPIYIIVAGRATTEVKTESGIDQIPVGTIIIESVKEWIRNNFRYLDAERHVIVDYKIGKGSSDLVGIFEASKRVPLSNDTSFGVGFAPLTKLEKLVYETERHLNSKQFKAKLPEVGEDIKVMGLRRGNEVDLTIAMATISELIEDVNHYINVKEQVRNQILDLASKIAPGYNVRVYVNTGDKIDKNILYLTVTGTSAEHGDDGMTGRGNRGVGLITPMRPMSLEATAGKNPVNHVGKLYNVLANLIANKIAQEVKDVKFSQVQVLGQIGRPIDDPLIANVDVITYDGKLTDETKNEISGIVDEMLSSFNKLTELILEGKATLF
Method: In-vitro sMAT assay: In vitro sMAT reactions were conducted in a volume of 50 μl with 2 mM S/Se-alkylated analog, 1 mM ATP and 5 μM purified sMAT in 25 mM Tris buffer pH 8.0, 5 mM MgCl2, 50 mM KCl for 4 h at 65° C. Reactions were quenched by adding an equal volume of methanol followed by centrifugation (10,000×g for 15 min) to remove the precipitated protein and product formation for each reaction was subsequently analyzed by reverse phase HPLC (RP-HPLC) using method described below. For each reaction, percent yield was based upon the integration of species at 254 nm and calculated by dividing the integrated area of product and/or decomposed product by the sum of integrated area of product and/or decomposed product and the remaining substrate. The assays were repeated twice under identical conditions, and Table 4 (and FIG. 17) represents an average value of two assays. The inclusion of adenine and 5′-R-thio-5′-adenosine in these calculations is based upon the established SAM and ATP chemical decomposition pathways which indicate adenine and 5′-R-thio-5′-adenosine to only derive from SAM (not ATP). All putative products were subsequently confirmed by high resolution electrospray ionization (ESI) mass spectra with positive (+) and/or negative (−) mode.
RP-HPLC method: Reactions were quenched by the addition of equal volume of methanol followed by centrifugation at 10,000 g for 15 min to remove precipitated protein before applying on an analytical Varian ProStar HPLC [Luna C18 column, 5 μm, 4.6 mm×250 mm; Phenomenex, Torrance, Calif., USA; gradient of 10% B to 40% B over 15 min, 40% B to 75% B over 5 min (A=10 mM NaH2PO4, 5 mM octane sulfonic acid, pH was adjusted to 3.5 using phosphoric acid; B=acetonitrile) flow rate=1 mL min^−1; A254].

SMILES | Percentage Turn-over eMAT [1] | Percentage Turn-over hMAT1A [2] | Percentage Turn-over hMAT2 [3] | Percentage Turn-over hMAT2A [4] | Percentage Turn-over mMAT [5] | Percentage Turn-Over (sMAT) [6]
CC(C)SCC[C@H](N)C(=O)O [compound 9, (2S)-2-amino-4-(propan-2-ylsulfanyl)butanoic acid] | 0% | 2% | 2% | 2% | 8% | 53%
CCCSCC[C@H](N)C(=O)O [compound 8, (2S)-2-amino-4-(propylsulfanyl)butanoic acid] | 2% | 5% | 55% | 54% | 21% | 44%
CCCCSCC[C@H](N)C(=O)O [compound 13, (2S)-2-amino-4-(butylsulfanyl)butanoic acid] | 0% | 0% | 13% | 12% | 12% | 27%
C#CCSCC[C@H](N)C(=O)O [compound 4, (2S)-2-amino-4-(prop-2-yn-1-ylsulfanyl)butanoic acid] | 2% | 2% | 20% | 6% | 6% | 36%
CC(C)CSCC[C@H](N)C(=O)O [compound 14, (2S)-2-amino-4-[(2-methylpropyl)sulfanyl]butanoic acid] | 0% | 0% | 0% | 0% | 1% | 57%
CC(C)CCSCC[C@H](N)C(=O)O [compound 18, (2S)-2-amino-4-[(3-methylbutyl)sulfanyl]butanoic acid] | 0% | 0% | 0% | 0% | 1% | 36%
C=CCSCC[C@H](N)C(=O)O [compound 7, (2S)-2-amino-4-(prop-2-en-1-ylsulfanyl)butanoic acid] | 2% | 5% | 52% | 50% | 16% | 27%
N#CCSCC[C@H](N)C(=O)O [compound 6, (2S)-2-amino-4-[(cyanomethyl)sulfanyl]butanoic acid] | 2% | 2% | 20% | 13% | 6% | 68%
C#CCCSCC[C@H](N)C(=O)O [compound 10, (2S)-2-amino-4-(but-3-yn-1-ylsulfanyl)butanoic acid] | 0% | 0% | 40% | 12% | 16% | 30%
[N-]=[N+]=NCCCSCC[C@H](N)C(=O)O [compound 21, (2S)-2-amino-4-[(3-azidopropyl)sulfanyl]butanoic acid] | 0% | 0% | 46% | 19% | 31% | 60%
